Source: US10993983B2, “Cyclic peptide epitopes and small-molecule mimics for inducing autophagy” (TRUSTEES OF TUFTS COLLEGE, priority 2016, dated 2021)
Entries after “also recorded” stand apart in the source; their conditions may differ. Bridges are numbered along the chain shown (N, C = ends). Where no end group is shown, it is not given here. [ ]: non-standard residue; d: D form. The star is where a group is joined. Hexanoyl = CCCCCC(=O)*; PhAc = O=C(Cc1ccccc1)*; Bz = O=C(c1ccccc1)*; Allyl = C=CC*

Tests used:
Type in all cases: cell-based
LC3 = LC3 marker assay (LC3-I to LC3-II conversion immunoblot); parameters: key: −: activity not reported; 0: decreased vs. WT; +: similar to WT; ++: modest increase vs. WT; +++: significant increase vs. WT; conditions: second symbol; for Activity (μM) 10, LC3 assay activity: 10 μM; for Activity (μM) 30, LC3 assay activity: 30 μM; for Activity (μM) 50, LC3 assay activity: 50 μM; for Activity (μM) 100, LC3 assay activity: 100 μM
p62 = p62 degradation assay (p62/actin immunoblot); parameters: key: −: activity not reported; 0: decreased vs. WT; +: similar to WT; ++: modest increase vs. WT; +++: significant increase vs. WT; conditions: first symbol; for Activity (μM) 10, p62/actin assay activity: 10 μM; for Activity (μM) 30, p62/actin assay activity: 30 μM; for Activity (μM) 50, p62/actin assay activity: 50 μM; for Activity (μM) 100, p62/actin assay activity: 100 μM
HeLa cells = test: Autophagy induction judged by p62 and LC3 immunoblots together; parameters: key to Activity compared to wild-type WT / Activity (μM) 10, single symbol / Activity (μM) 30, single symbol / Activity (μM) 50, single symbol / Activity (μM) 100, single symbol: −: activity not reported; 0: decreased vs. WT; +: similar to WT; ++: modest increase vs. WT; +++: significant increase vs. WT; conditions: for Activity (μM) 10, single symbol: 10 μM; for concentration at which autophagy induction (p62 degradation and LC3 lipidation) was observed: immunoblot, 3 hour treatment; for Activity compared to wild-type WT: Tat-linked linear peptides, summation of p62 degradation assay and LC3 marker assay
Procedure: This 10-mer sequence was substituted with various thiol-containing amino acids at various positions, and then cross-linked with various linkers as described above (FIG. 5, a and FIG. 6).
Cells were treated with peptide in OPTI-MEM (Thermo Scientific) acidified with 0.15% (v/v) 6N HCl for 3 hour. Cells were rinsed with Dulbecco's phosphate buffered saline (PBS) and lysed in lysis buffer (20 mM HEPES, 150 mM NaCl, 1 mM EDTA, 1% Triton X-100, protease inhibitor cocktail (Roche) on ice for 1 hour. Cell lysates were centrifuged at 16,000 g for 10 min at 4° C. and analyzed by SDS-PAGE and transferred to PVDF membranes. The membranes were blocked 5% non-fat dry milk (NFDM) in PBST (PBS+0.05% Tween-20) for 1 hour, then incubated overnight at 4° C. with primary antibody in 5% NFDM in PBST. The blots were washed with PBST and incubated with HRP-conjugated secondary antibodies diluted in 5% NFDM in PBST for 1 hour at room temperature. Membranes were washed with PBST and visualized with SuperSignal West Pico Chemiluminescent Substrate (Thermo Scientific). Semi-quantitative results were obtained by noting the lowest concentration at which both p62 degradation and LC3-I to LC3-II conversion were observed.
(SEQ ID NO: 16)-Sequence. […] The N-terminus was capped with an acetyl group while the C terminus was capped with a —C(O)—NH2 group. The activity reported is a summation of results from both the p62 degradation assay and the LC3 marker assay.

[1] = HeLa cells, p62 and LC3 immunoblots

Substance	autophagy induction, result in words (HeLa cells; [1])	Activity compared to wild-type WT (HeLa cells)	other results
VCNATCHIWH [Compound 15]			Activity (μM) 10, LC3 assay activity (LC3; Table 5, control compound T25): 0/0; Activity (μM) 10, LC3 assay activity (LC3; Table 6, control DMSO): ++/++; Activity (μM) 30, LC3 assay activity (LC3; Table 5, control compound T25): +/+; Activity (μM) 30, LC3 assay activity (LC3; Table 6, control DMSO): +; Activity (μM) 50, LC3 assay activity (LC3; Table 5, control compound T25): ++/++; Activity (μM) 50, LC3 assay activity (LC3; Table 6, control DMSO): +; Activity (μM) 100, LC3 assay activity (LC3; Table 5, control compound T25): +++/+++; Activity (μM) 100, LC3 assay activity (LC3; Table 6, control DMSO): +; Activity (μM) 10, p62/actin assay activity (p62; Table 5, control compound T25): 0/0; Activity (μM) 10, p62/actin assay activity (p62; Table 6, control DMSO): ++/++; Activity (μM) 30, p62/actin assay activity (p62; Table 5, control compound T25): +/+; Activity (μM) 30, p62/actin assay activity (p62; Table 6, control DMSO): +++; Activity (μM) 50, p62/actin assay activity (p62; Table 5, control compound T25): ++/++; Activity (μM) 50, p62/actin assay activity (p62; Table 6, control DMSO): +++; Activity (μM) 100, p62/actin assay activity (p62; Table 5, control compound T25): +++/+++; Activity (μM) 100, p62/actin assay activity (p62; Table 6, control DMSO): +++; Activity (μM) 10, single symbol (HeLa cells; Table 5): 0; Activity (μM) 30, single symbol (HeLa cells; 30 μM, Table 5): +; Activity (μM) 50, single symbol (HeLa cells; 50 μM, Table 5): +++; Activity (μM) 100, single symbol (HeLa cells; 100 μM, Table 5): +++
(pa)-VcNAcAHIWH (pa-V[dC]NA[dC]AHIWH; linker 2-5 via ortho‑xylene (inferred)) [Phe6Ala]	complete loss of activity; also recorded: complete loss in activity		
(pa)-VcNAcFHIWH [LL5-o] (VCNACFHIWH; not fully specified (residues 2, 5, N-terminus, bridges); printed as (pa)-VcNAcFHIWH; cysteine pairing not given here) [ortho-xylene linker; stereoisomer with two L-cysteines, negative control]	no autophagy-inducing activity		concentration at which autophagy induction (p62 degradation and LC3 lipidation) was observed (HeLa cells; HeLa cells): 100 µM
VFNATFEIWHE [Compound T11, Tat-linked linear peptide]		+	
VWNATFEIWHD [Compound T2, Tat-linked linear peptide]		++	
VYNATFEIWHD [Compound T13, Tat-linked linear peptide]		0	
VWNATFELWHD [Compound T12, Tat-linked linear peptide]		+	
VFNACFEIWHD [Compound T5, Tat-linked linear peptide]		0	
(pa)-AcNAcFHIWH (pa-A[dC]NA[dC]FHIWH; linker 2-5 via ortho‑xylene (inferred)) [Val1Ala]	complete loss in activity		autophagy induction, result in words (HeLa cells; HeLa cells, p62 and LC3 immunoblots, listed as Vail): complete loss of activity
VWNATFHIWH [Compound T33, Tat-linked linear peptide]		+++	
VFNATFEIWYD [Compound T10, Tat-linked linear peptide]		+	
(hexano)-VcNAcFHIWH (Hexanoyl-V[dC]NA[dC]FHIWH; linker 2-5 via ortho‑xylene (inferred); not fully specified (C-terminus); printed as (hexano)-VcNAcFHIWH) [hexano-DD5-o]	induced autophagy, but to a somewhat lesser extent than DD5-o		concentration at which autophagy induction (p62 degradation and LC3 lipidation) was observed (HeLa cells; HeLa cells): 50 µM
VFNATWEIWHD [Compound T6, Tat-linked linear peptide]		0	
GFNATFEIWHD [Compound T24, Tat-linked linear peptide]		0	
(benzo)-VcNAcFHIWH (Bz-V[dC]NA[dC]FHIWH; linker 2-5 via ortho‑xylene (inferred); not fully specified (C-terminus); printed as (benzo)-VcNAcFHIWH) [benzo-DD5-o]	induced autophagy to a slightly lesser extent than DD5-o		concentration at which autophagy induction (p62 degradation and LC3 lipidation) was observed (HeLa cells; HeLa cells): 50 µM
TFNATFEIWHD [Compound T22, Tat-linked linear peptide]		0	
(pa)-VcNAcFHIWA (pa-V[dC]NA[dC]FHIWA; linker 2-5 via ortho‑xylene (inferred)) [His10Ala]	significantly decreased activity		concentration at which autophagy induction (p62 degradation and LC3 lipidation) was observed (HeLa cells; HeLa cells): 100 µM; activity relative to DD5-o (fold worse) (HeLa cells; [1]): 5 fold
WNATFHIWH [Compound T32, Tat-linked linear peptide]		++	

Substance	autophagy induction, result in words (HeLa cells; [1])	Activity compared to wild-type WT (HeLa cells)	other results
VWNAAFHIWHD [Compound T37, Tat-linked linear peptide]		++	
VFNATFEIFHD [Compound T9, Tat-linked linear peptide]		+	
VWNATFHIWHD [Compound T17, Tat-linked linear peptide]		+++	Activity (μM) 10, single symbol (HeLa cells; Table 6, control DMSO, one symbol only): +
(pa)-VcNAcFHIAH (pa-V[dC]NA[dC]FHIAH; linker 2-5 via ortho‑xylene (inferred)) [Trp9Ala]	significantly decreased activity		concentration at which autophagy induction (p62 degradation and LC3 lipidation) was observed (HeLa cells; HeLa cells): 100 µM
VLNATFEIWHD [Compound T15, Tat-linked linear peptide]		+	
VWNATFAIWHD [Compound T39, Tat-linked linear peptide]		+++	
VFNATFDIWHD [Compound T7, Tat-linked linear peptide]		+	
FNATFEIWHD [Compound T21, Tat-linked linear peptide]		++	
(phenyl)-VcNAcFHIWH (PhAc-V[dC]NA[dC]FHIWH; linker 2-5 via ortho‑xylene (inferred); not fully specified (C-terminus); printed as (phenyl)-VcNAcFHIWH) [phenyl-DD5-o]	showed no activity		
VWAATFHIWHD [Compound T36, Tat-linked linear peptide]		+	
(pentene)-VcNAcFHIWH [pentene-DD5-o]	induced autophagy, but to a somewhat lesser extent than DD5-o		concentration at which autophagy induction (p62 degradation and LC3 lipidation) was observed (HeLa cells; HeLa cells): 50 µM
VFNATFEVWHD [Compound T14, Tat-linked linear peptide]		+	
WNATFHIWHD [Compound T34, Tat-linked linear peptide]		+++	
(acetyl)-VcNAcFHIWH (Ac-V[dC]NA[dC]FHIWH; linker 2-5 via ortho‑xylene (inferred); not fully specified (C-terminus); printed as (acetyl)-VcNAcFHIWH) [Ac-DD5-o]	almost no autophagy-inducing activity		
(pa)-VcNAcFHIWH [DD5-allyl] (pentynoyl-V[dC](Allyl)NA[dC](Allyl)FHIWH; not fully specified (C-terminus); printed as (pa)-VcNAcFHIWH [DD5-allyl]) [allyl, unstapled]	did not induce autophagy		
(pa)-VcNAcFAIWH (pa-V[dC]NA[dC]FAIWH; linker 2-5 via ortho‑xylene (inferred)) [His7Ala]	milder effects on activity		
(pa)-VCNAcFHIWH (pa-VCNA[dC]FHIWH; linker 2-5 via ortho‑xylene (inferred)) [LD5-o]	mildly increased autophagy		
(pa)-VcNAcFHIWH [DD5-m] (pa-V[dC]NA[dC]FHIWH; linker 2-5 via meta‑xylene (inferred))	did not induce autophagy		
